We go through 84 compounds from the supplement of paper PMC6580486.

SMILES strings stand for the structures.
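Note: alveolar rhabdomyosarcoma tumor culture.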

For the assay, the system named is U23674 (mouse alveolar rhabdomyosarcoma primary culture).
`NCc1ccc(-n2c(-c3nonc3N)nc3cnccc32)cc1` displayed an IC50 cell viability of 3.9 µM.

In turn, `COC(=O)c1cncc(/C=C/c2c(C)cc(O)cc2C)c1` yielded an IC50 cell viability greater than 10 µM. The figure for `O=C1NC(=O)C(c2cccc(Cl)c2)=C1Nc1ccc(Cl)c(C(=O)O)c1` is greater than 10 µM; for `CCn1c(-c2nonc2N)nc2c(C#CC(C)(C)O)nc(OC[C@@H](N)c3ccccc3)cc21` it is greater than 10 µM; for `CS(=O)(=O)CCNCc1nc(-c2ccc3ncnc(Nc4ccc(OCc5cccc(C(F)(F)F)c5)cc4)c3c2)cs1` it is greater than 10 µM.

For the compound `CCn1c(-c2nonc2N)nc2cncc(C(=O)NCCNC)c21`, the IC50 cell viability is greater than 10 µM. For `Nc1nccc(-c2c(-c3ccc(F)cc3)nn3cc(C(F)(F)F)ccc23)n1` the value was greater than 10 µM. `CCCN1CCC(c2ccc(Nc3nc(Nc4cc(F)ccc4C(N)=O)c4cc[nH]c4n3)c(OC)c2)CC1` came in with an IC50 cell viability greater than 10 µM. For `Fc1ccc(-c2ncn(C3CCNCC3)c2-c2ccnc(Oc3ccc4c(c3)OCO4)n2)cc1` the value was greater than 10 µM; for `COc1cccc(-n2ncc3c(N/N=C/c4ccc(S(C)(=O)=O)cc4)ncnc32)c1`, greater than 10 µM. For `CS(=O)(=O)CCNCc1cc(-c2cc3c(Nc4ccc(OCc5cccc(F)c5)c(Cl)c4)ncnc3s2)cs1` the value was greater than 10 µM. Compound `Nc1nc(-c2ccc(F)cc2)c(-c2ccc3ncccc3n2)s1` had an IC50 cell viability greater than 10 µM. Turning to `COc1ccc(C2=C(N3CCc4ccccc43)C(=O)NC2=O)cc1`, the IC50 cell viability is greater than 10 µM. For `COC(=O)Nc1nc2ccc(Oc3ccc(NC(=O)Nc4ccccc4)cc3)cc2[nH]1` the value was greater than 10 µM.

In the case of `COc1cc2c(cc1Nc1nc(Nc3ccsc3C(N)=O)c3cc[nH]c3n1)N(C(=O)CN(C)C)CCC2(C)C`, the IC50 cell viability was 0.4 µM. Compound `COc1cc(Nc2ncc3c(C)nc(-c4cccc(C(F)(F)F)c4)n3n2)cc(OC)c1OC` registered an IC50 cell viability greater than 10 µM. On to `Fc1ccc(-c2ncn(C3CCNCC3)c2-c2ccnc(Oc3ccc(F)c(F)c3)n2)cc1`, for which the IC50 cell viability was 6.2 µM. The figure for `COc1cccc(-n2ncc3c(N/N=C/c4ccc(F)cc4)ncnc32)c1` is greater than 10 µM. The figure for `COc1cc2ncnc(Nc3ccc(C)c(O)c3)c2cc1OC` is greater than 10 µM.

For `C[C@@H](Oc1cc(-n2cnc3ccc(OCC4CCN(C)CC4)cc32)sc1C(N)=O)c1ccccc1C(F)(F)F`, the IC50 cell viability worked out at 0.1 µM. The compound `COc1cccc(-n2ncc3c(N/N=C/c4ccncc4)ncnc32)c1` returned an IC50 cell viability greater than 10 µM. `CS(=O)(=O)CCN(CC#N)Cc1ccc(-c2ccc3ncnc(Nc4ccc(OCc5cccc(F)c5)c(Cl)c4)c3c2)o1` displayed an IC50 cell viability greater than 10 µM. `Nc1ccc(C#Cc2cncnc2Nc2ccc(OCc3cccc(F)c3)c(Cl)c2)cc1` returned an IC50 cell viability greater than 10 µM. For `NC(=O)c1sc(-n2cnc3cc(C(F)(F)F)ccc32)cc1OCc1ccccc1Br` the value was greater than 10 µM; for `CC(C)c1ccc2c(N=Nc3ccc(S(N)(=O)=O)cc3)c(O)[nH]c2c1`, greater than 10 µM; for `CC(C)c1ccc(-c2cc(-c3cn[nH]c3-c3ccccn3)ccn2)cc1`, greater than 10 µM.

As for `c1cc(-c2cnn3nc(N4CCOCC4)ccc23)nc(NC2CC2)n1`, the IC50 cell viability is greater than 10 µM. The figure for `CCN1CCC(C(=O)Nc2n[nH]c3nnc(-c4cccc(F)c4F)cc23)CC1` is greater than 10 µM; for `CC(=O)Nc1cccc(C#Cc2cncnc2Nc2ccc(OCc3cccc(F)c3)c(Cl)c2)n1` it is greater than 10 µM. For `COc1cc2ncn(-c3cc(OCc4ccccc4C(F)(F)F)c(C(N)=O)s3)c2cc1OC` the value was greater than 10 µM; for `CN(C)c1ccc2[nH]c(O)c(C=Nc3ccc(S(N)(=O)=O)cc3)c2c1`, greater than 10 µM.

For `CN1CCC(C(=O)Nc2n[nH]c3nnc(-c4ccccc4)cc23)CC1`, the IC50 cell viability is greater than 10 µM. In turn, `COc1ccccc1-c1cc(/C=C2\C(=O)Nc3ncc(Br)cc32)cc(Br)c1O` returned an IC50 cell viability greater than 10 µM.

For the compound `Cc1nnc(-c2cccc(-c3ccc(C(=O)NCC4CC4)cc3)c2)o1`, the IC50 cell viability is greater than 10 µM. As for `CCn1c(-c2nonc2N)nc2c(C#CC(C)(C)O)nc(OC[C@H](N)c3ccccc3)cc21`, the IC50 cell viability turned out to be 1.6 µM. The figure for `CS(=O)(=O)CCNCc1ccc(-c2ccc3ncnc(Nc4ccc(OCc5cccc(F)c5)c(C(F)(F)F)c4)c3c2)o1` is 4.8 µM. For `CN(C)C(=O)O[C@@H]1CN[C@@H](C#Cc2cc3ncnc(Nc4ccc(OCc5cccc(F)c5)c(Cl)c4)c3s2)C1` the value was greater than 10 µM.

In turn, `CC(C)(CO)CNC(=O)c1ccc2[nH]c(O)c(N=Nc3ccc(S(N)(=O)=O)cc3)c2c1` registered an IC50 cell viability greater than 10 µM. In the case of `NS(=O)(=O)c1ccc(N=Nc2c(O)[nH]c3ccc(C(=O)NCc4ccncc4)cc23)cc1`, the IC50 cell viability was greater than 10 µM. For `Cc1cc(Cl)cc2c(N=Nc3ccc(S(N)(=O)=O)cc3)c(O)[nH]c12` the value was greater than 10 µM; for `c1ccc(-c2[nH]ncc2-c2ccnc(-c3ccc(OCCn4ccnc4)cc3)c2)nc1`, greater than 10 µM; for `CCn1c(-c2nonc2N)nc2ccncc21`, greater than 10 µM. For `Cc1ccc(NC(=O)c2ccnc(N3CCCC3)c2)cc1-c1ccc(C(=O)NCC2CC2)cc1` the value was greater than 10 µM. The figure for `Fc1cccc(COc2ccc(Nc3ncnc4sc(-c5ccco5)cc34)cc2Cl)c1` is greater than 10 µM; for `C[C@@H](Oc1cc(-n2cnc3ccc(OC[C@@H](O)CO)cc32)sc1C(N)=O)c1ccccc1Cl` it is 5.4 µM; for `Cc1nnc(-c2ccc(C)c(-c3ccc(C(=O)Nc4cccc(C#N)c4)cc3)c2)o1` it is greater than 10 µM.

`Cc1c2ccc(N(C)c3ccnc(Nc4cccc(S(N)(=O)=O)c4)n3)cc2nn1C` came in with an IC50 cell viability greater than 10 µM.

As to `c1ccc(Oc2ccc(Nc3ncc(-c4ccccc4)o3)cc2)cc1`, the IC50 cell viability was greater than 10 µM.

`C[C@@H](Oc1cc(-n2cnc3ccc(OC4CCN(C)CC4)cc32)sc1C(N)=O)c1ccccc1Cl` returned an IC50 cell viability of 0.9 µM. As for `Nc1nccc(-c2c(-c3ccc(F)cc3)ncn2CCCN2CCOCC2)n1`, the IC50 cell viability was greater than 10 µM. For the compound `CNC(=O)c1cc(-c2ccc(F)cc2)cc(-c2ccc(S(=O)(=O)N3CCCC3)cc2)c1N`, the IC50 cell viability is greater than 10 µM. For `CCn1c(-c2nonc2N)nc2cnc(Oc3cccc(NC(=O)c4ccc(OCCN5CCOCC5)cc4)c3)cc21` the value was greater than 10 µM; for `CCn1c(-c2nonc2N)nc2cnc(Oc3cccc(NC(=O)c4ccc(N(C)C)cc4)c3)cc21`, greater than 10 µM. The figure for `CC1=C(C(=O)Nc2ccc3[nH]ncc3c2)C(c2ccc(F)cc2)NC(=O)N1` (centres undefined) is greater than 10 µM; for `COc1cc2c(cc1Nc1nc(Nc3cccc(F)c3C(N)=O)c3cc[nH]c3n1)N(C(=O)CN1CCN(C(C)C)CC1)CC2` it is 3.2 µM. As to `COc1cc2ncn(-c3cc(OCc4cccs4)c(C(N)=O)s3)c2cc1OC`, the IC50 cell viability was greater than 10 µM. The compound `Nc1nc(-c2ccc3c(c2)C(=Cc2cc(Br)c(O)c(Br)c2)C(=O)N3)cs1` registered an IC50 cell viability greater than 10 µM. `COc1ccccc1Nc1ncc(-c2ccccc2)o1` came in with an IC50 cell viability greater than 10 µM. The figure for `c1ccc(COc2ccc(Nc3ncnc4ccc(-c5ccco5)cc34)cc2)cc1` is greater than 10 µM. The figure for `Fc1ccc(-c2cc(-c3cn[nH]c3-c3ccccn3)ccn2)cc1` is greater than 10 µM; for `Fc1ccc(-c2ncn(C3CCNCC3)c2-c2ccnc(Oc3ccc(Oc4ccccc4)cc3)n2)cc1` it is 2 µM; for `NC(=O)c1sc(-n2cnc3ccc(C(F)(F)F)cc32)cc1OCc1ccccc1Br` it is greater than 10 µM. As to `CNC(=O)c1ncccc1Nc1nc(Nc2cc3c(cc2OC)CCCN3C(=O)CN(C)C)nc2[nH]ccc12`, the IC50 cell viability was greater than 10 µM.

The compound `CCOc1nccc2c1nc(-c1nonc1N)n2CC` displayed an IC50 cell viability greater than 10 µM. `CS(=O)(=O)CCNCc1ccc(-c2ccc3ncnc(Nc4ccc(OCc5ccccc5)c(Br)c4)c3c2)o1` gave an IC50 cell viability greater than 10 µM. As for `COc1cc2ncn(-c3cc(O[C@@H](C)c4ccccc4Cl)c(C(N)=O)s3)c2cc1OC`, the IC50 cell viability was greater than 10 µM. Turning to `O=C1Nc2ccccc2C1=C1CCc2cc(O)ccc21`, the IC50 cell viability was greater than 10 µM. For `COc1cc(C=NNc2ncnc3c2cnn3Cc2ccccc2)ccc1O`, the IC50 cell viability was greater than 10 µM. Compound `Cc1nn(C)c2cc(N(C)c3ccnc(Nc4cccc(S(N)(=O)=O)c4)n3)ccc12` showed an IC50 cell viability greater than 10 µM. Regarding `CN1CCN(Cc2ccc(-c3cc4ncnc(Nc5ccc(OCc6cccc(F)c6)c(Cl)c5)c4s3)o2)CC1`, the IC50 cell viability was greater than 10 µM. `Cc1ccc(Nc2ccnc(Nc3cccc(C(N)=O)c3)n2)cc1O`: the IC50 cell viability is greater than 10 µM.

In the case of `c1ccc(-c2nc3n(c2-c2ccc4c(c2)OCO4)CCC3)nc1`, the IC50 cell viability is greater than 10 µM. Consider `CCN(CC)S(=O)(=O)c1ccc(OC)c(Nc2ncc(-c3ccccc3)o2)c1`, for which the IC50 cell viability is greater than 10 µM. For `O=c1[nH]c2ccc(N=Cc3c(O)[nH]c4ccccc34)cc2[nH]1` the value was greater than 10 µM. For `Cc1nnc(-c2ccc(C)c(-c3ccc(C(=O)NCc4ccc(Cl)cc4)cc3)c2)o1` the value was greater than 10 µM; for `CCn1c(-c2nonc2N)nc2c(C#CCN)ncc(OCCCN)c21`, greater than 10 µM. The figure for `NC(=O)c1cccc(Nc2nccc(Nc3cccc(F)c3)n2)c1` is greater than 10 µM. Regarding `COc1cc(N2CCN(C(C)C)CC2)ccc1Nc1nc(Nc2cccc(F)c2C(=O)O)c2cc[nH]c2n1`, the IC50 cell viability was greater than 10 µM.

`O=C(O[C@H]1CN[C@H](C#Cc2cc3ncnc(Nc4ccc(OCc5cccc(F)c5)c(Cl)c4)c3s2)C1)N1CCOCC1` displayed an IC50 cell viability greater than 10 µM. The compound `NS(=O)(=O)c1ccc(-c2cc3ccncc3cc2OCc2ccccc2)cc1` showed an IC50 cell viability greater than 10 µM. On to `N#Cc1ccc(Oc2nccc(-c3c(-c4ccc(F)cc4)ncn3C3CCNCC3)n2)cc1`, for which the IC50 cell viability was greater than 10 µM. The figure for `Fc1ccc(-c2nn3ncccc3c2-c2ccnc(Nc3ccc4c(c3)OCCO4)n2)cc1` is greater than 10 µM; for `NS(=O)(=O)c1cccc(-c2ccc3c(NC(=O)C4CC4)n[nH]c3c2)c1` it is greater than 10 µM.

Compound `CS(=O)(=O)Nc1ccc(-c2ccc3c(NC(=O)C4CC4)n[nH]c3c2)cc1` yielded an IC50 cell viability greater than 10 µM.
